Measurements taken from patent US12286443B2, “Bycyclic JAK inhibitors and uses thereof” (Insilico Medicine IP Limited, priority 2019, dated 2025).

What follows are molecules tested against T1, JAK3 (Homo sapiens, UniProt P52333) (assay: Inhibition of JAK3 kinase, LANCE Ultra TR-FRET assay). Conditions: 2x ATP 8 μM, 15 min pre-incubation, 90 min reaction, 23° C.
T1 construct: purchased Invitrogen PV4080
T1 sequence (P52333 1-1124): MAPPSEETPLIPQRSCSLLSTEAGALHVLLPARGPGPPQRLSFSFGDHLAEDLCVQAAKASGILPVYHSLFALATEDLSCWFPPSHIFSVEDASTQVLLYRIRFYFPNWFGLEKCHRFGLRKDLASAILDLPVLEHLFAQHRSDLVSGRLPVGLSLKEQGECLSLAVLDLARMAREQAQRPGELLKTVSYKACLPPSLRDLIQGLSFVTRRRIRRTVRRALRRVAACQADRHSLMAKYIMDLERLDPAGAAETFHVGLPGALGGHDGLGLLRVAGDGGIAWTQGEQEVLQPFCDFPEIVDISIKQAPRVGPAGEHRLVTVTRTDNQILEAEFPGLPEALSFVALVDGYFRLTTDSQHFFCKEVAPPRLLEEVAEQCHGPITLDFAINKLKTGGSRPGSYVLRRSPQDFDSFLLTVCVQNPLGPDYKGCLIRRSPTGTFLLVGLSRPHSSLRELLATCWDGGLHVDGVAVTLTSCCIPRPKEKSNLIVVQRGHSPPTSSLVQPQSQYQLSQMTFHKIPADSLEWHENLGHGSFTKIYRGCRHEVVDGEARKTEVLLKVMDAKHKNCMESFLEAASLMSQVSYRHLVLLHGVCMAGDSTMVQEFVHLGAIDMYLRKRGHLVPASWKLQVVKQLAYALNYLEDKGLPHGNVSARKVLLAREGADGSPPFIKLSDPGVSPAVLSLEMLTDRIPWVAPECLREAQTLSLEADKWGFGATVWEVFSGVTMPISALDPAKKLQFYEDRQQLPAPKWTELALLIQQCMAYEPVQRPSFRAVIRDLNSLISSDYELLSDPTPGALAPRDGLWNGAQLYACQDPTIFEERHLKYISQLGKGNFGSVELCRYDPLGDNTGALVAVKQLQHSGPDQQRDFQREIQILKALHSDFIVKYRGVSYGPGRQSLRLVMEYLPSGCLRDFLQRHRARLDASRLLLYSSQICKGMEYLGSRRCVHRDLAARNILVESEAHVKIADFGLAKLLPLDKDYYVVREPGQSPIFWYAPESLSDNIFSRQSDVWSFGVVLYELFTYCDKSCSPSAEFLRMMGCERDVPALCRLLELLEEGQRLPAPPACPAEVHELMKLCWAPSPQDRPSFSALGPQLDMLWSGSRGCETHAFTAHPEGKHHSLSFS
Assay type: biochemical
Procedure: (§1) Exemplary compounds were assayed to determine potency in inhibiting activity of JAK1-3 and TYK2 kinases by determining IC50 values.
(§2) The sources of test materials and equipment are as follows: JAK1 (Invitrogen, Cat. No PV4775), JAK2 (Invitrogen, Cat. No PV4210), JAK3 (Invitrogen, Cat. No PV4080), TYK2 (Invitrogen, Cat. No PR8440C), ATP (Sigma, Cat. No. A7699-1G), DMSO (Sigma, Cat. No. D2650), DTT (Sigma, Cat. No. 43815), 384 wells_compound plate (Greiner, Cat. No. 781280), 384 wells_assay plate (Perkin Elmer, Cat. No. 6007299), LANCE Ultra ULight™-JAK-1 peptide (Perkin Elmer, Cat. No. TRF0121), LANCET™ Eu-W1024 Anti-phosphotyrosine (PT66) (Perkin Elmer, Cat. No. AD0069), LANCET™ Detection Buffer(Perkin Elmer, Cat. No. CR97-100).
(§3) The concentrations of test compounds varied from 100 μM to 1.7 nM with 3-fold dilution, 11 points, in duplicates while the concentrations of the reference compound, Tofacitinib, varied from 1 μM to 0.017 nM with 3-fold dilution, 11 points, in duplicates.
(§4) The assay buffer contained 50 mM HEPES (pH 7.5), 0.01% Brij-35, 10 mM MgCl2, 1 mM EDTA, 2 mM DTT. Incubations were carried out at 23° C.
(§5) Prior to the assay, enzyme, peptide substrate and serially diluted test compounds were pre-incubated together in assay buffer (5 μL) for 15 minutes (peptide substrate concentration: 50 nM; JAK enzyme concentrations: 2 nM JAK1; […]; […] and 4 nM TYK2). And the assay was initiated by the addition of 5 μL assay buffer containing 2× final ATP concentration (these are the 2×ATP concentrations: 76 μM JAK1; 24 μM JAK2; 8 μM JAK3 and 30 μM TYK2). Following the 90-minute incubation, antibody conjugated with Eu is dissolved in detection buffer to add into wells and then incubated for 60 minutes. The 10 μL detection buffer contains EDTA to stop the enzymatic reaction. The plate is analyzed by Perkin Elmer Envision on TR-FRET mode. The high ratio of 665/615 represents no inhibition of kinase reaction while the low ratio of 665/615 represents complete inhibition of kinase reaction.
(§6) Curves are fit by XLFIT5 as inhibition rate % vs. log [compound concentration] using 4 parameters logistic model 205.
(§7) In the table, “A” indicates an IC50 of less than 100 nM, “B” indicates an IC50 range from 100 nM to 500 nM; “C” indicates an IC50 range from 500 nM to 2 μM; and “D” indicates an IC50 greater than 2 μM. Also, “na” indicates data is not available.

| Compound | IC50 [nM] |
| --- | --- |
| COC(=O)[C@H]1C[C@H](NC(=O)c2nn(C)c3c2CN(c2ncnc4[nH]ccc24)CC3)C1 [Compound 121] | > 2000 |
| O=C(NCCC(F)(F)F)c1nsc2c1CN(c1ncnc3[nH]ccc13)CC2 [Compound 141] | < 100 |
| C=CCn1nc(C(=O)NCCC(F)(F)F)c2c1CCN(c1ncnc3[nH]ccc13)C2 [Compound 113] | < 100 |

Further lines, results first:

| IC50 [nM] | Compound |
| --- | --- |
| 100 to 500 | O=C(NC[C@@H]1CC[C@H]1O)c1noc2c1CN(c1ncnc3[nH]ccc13)CC2 (relative stereo) [Compound 150-1] |
| 100 to 500 | CS(=O)(=O)N1CC(CNC(=O)c2noc3c2CN(c2ncnc4[nH]ccc24)CC3)C1 [Compound 168] |
| 100 to 500 | O=C(NCCS(=O)(=O)N1CCCCC1)c1noc2c1CN(c1ncnc3[nH]ccc13)CC2 [Compound 136] |
| < 100 | O=C(NCCCC(F)(F)F)c1noc2c1CN(c1ncnc3[nH]ccc13)CC2 [Compound 154] |

The molecules below were run against T2, JAK1 (Homo sapiens, UniProt P23458) (assay: Inhibition of JAK1 kinase, LANCE Ultra TR-FRET assay). Conditions: 2 nM JAK1, 2x ATP 76 μM, 15 min pre-incubation, 90 min reaction, 23° C.
T2 construct: purchased Invitrogen PV4775
T2 sequence (P23458 whole entry): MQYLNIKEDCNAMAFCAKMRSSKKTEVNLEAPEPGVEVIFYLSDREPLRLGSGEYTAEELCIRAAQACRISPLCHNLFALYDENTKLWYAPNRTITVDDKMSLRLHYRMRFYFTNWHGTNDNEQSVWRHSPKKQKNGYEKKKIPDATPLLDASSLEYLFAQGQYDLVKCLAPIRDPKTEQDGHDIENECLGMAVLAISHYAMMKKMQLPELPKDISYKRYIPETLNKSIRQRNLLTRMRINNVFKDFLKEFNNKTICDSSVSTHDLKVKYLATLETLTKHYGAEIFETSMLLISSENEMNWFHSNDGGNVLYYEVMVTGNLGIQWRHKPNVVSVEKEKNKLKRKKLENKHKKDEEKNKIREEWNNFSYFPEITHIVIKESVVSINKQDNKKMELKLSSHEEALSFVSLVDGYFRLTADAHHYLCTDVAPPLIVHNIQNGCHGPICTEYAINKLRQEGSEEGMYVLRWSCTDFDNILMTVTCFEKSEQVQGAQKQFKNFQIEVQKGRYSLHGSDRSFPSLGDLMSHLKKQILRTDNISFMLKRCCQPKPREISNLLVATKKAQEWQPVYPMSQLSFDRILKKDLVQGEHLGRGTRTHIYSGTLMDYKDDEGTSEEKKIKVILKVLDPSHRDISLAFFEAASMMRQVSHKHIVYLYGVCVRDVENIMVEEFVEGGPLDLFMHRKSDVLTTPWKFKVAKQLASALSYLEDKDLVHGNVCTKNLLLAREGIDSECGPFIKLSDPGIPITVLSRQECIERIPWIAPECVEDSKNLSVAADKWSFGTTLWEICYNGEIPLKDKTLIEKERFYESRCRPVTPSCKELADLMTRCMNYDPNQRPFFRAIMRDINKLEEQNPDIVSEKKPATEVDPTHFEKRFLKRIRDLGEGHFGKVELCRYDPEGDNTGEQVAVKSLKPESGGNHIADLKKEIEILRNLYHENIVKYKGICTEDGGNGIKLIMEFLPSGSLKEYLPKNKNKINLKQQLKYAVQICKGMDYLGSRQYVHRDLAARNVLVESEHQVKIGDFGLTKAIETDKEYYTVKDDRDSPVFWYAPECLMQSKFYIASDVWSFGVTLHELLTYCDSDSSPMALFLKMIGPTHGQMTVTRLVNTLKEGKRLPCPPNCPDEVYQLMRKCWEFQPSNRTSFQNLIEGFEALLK
Assay type: biochemical
Procedure: as §1, §2, §3, §4, §5, §6, §7

| Compound | IC50 [nM] |
| --- | --- |
| COC(=O)[C@H]1C[C@H](NC(=O)c2nn(C)c3c2CN(c2ncnc4[nH]ccc24)CC3)C1 [Compound 121] | > 2000 |
| O=C(NCCC(F)(F)F)c1nsc2c1CN(c1ncnc3[nH]ccc13)CC2 [Compound 141] | < 100 |
| C=CCn1nc(C(=O)NCCC(F)(F)F)c2c1CCN(c1ncnc3[nH]ccc13)C2 [Compound 113] | 100 to 500 |

Results, then the molecule that gave them:

| IC50 [nM] | Compound |
| --- | --- |
| 500 to 2000 | O=C(NC[C@@H]1CC[C@H]1O)c1noc2c1CN(c1ncnc3[nH]ccc13)CC2 (relative stereo) [Compound 150-1] |
| 500 to 2000 | CS(=O)(=O)N1CC(CNC(=O)c2noc3c2CN(c2ncnc4[nH]ccc24)CC3)C1 [Compound 168] |
| 500 to 2000 | O=C(NCCS(=O)(=O)N1CCCCC1)c1noc2c1CN(c1ncnc3[nH]ccc13)CC2 [Compound 136] |
| 100 to 500 | O=C(NCCCC(F)(F)F)c1noc2c1CN(c1ncnc3[nH]ccc13)CC2 [Compound 154] |

Each molecule was assayed against T3, TYK2 (Homo sapiens, UniProt P29597) (assay: Inhibition of TYK2 kinase, LANCE Ultra TR-FRET assay). Conditions: 4 nM TYK2, 2x ATP 30 μM, 15 min pre-incubation, 90 min reaction, 23° C., read-out: tyk IC50.
T3 construct: purchased Invitrogen PR8440C
T3 sequence (P29597 whole entry): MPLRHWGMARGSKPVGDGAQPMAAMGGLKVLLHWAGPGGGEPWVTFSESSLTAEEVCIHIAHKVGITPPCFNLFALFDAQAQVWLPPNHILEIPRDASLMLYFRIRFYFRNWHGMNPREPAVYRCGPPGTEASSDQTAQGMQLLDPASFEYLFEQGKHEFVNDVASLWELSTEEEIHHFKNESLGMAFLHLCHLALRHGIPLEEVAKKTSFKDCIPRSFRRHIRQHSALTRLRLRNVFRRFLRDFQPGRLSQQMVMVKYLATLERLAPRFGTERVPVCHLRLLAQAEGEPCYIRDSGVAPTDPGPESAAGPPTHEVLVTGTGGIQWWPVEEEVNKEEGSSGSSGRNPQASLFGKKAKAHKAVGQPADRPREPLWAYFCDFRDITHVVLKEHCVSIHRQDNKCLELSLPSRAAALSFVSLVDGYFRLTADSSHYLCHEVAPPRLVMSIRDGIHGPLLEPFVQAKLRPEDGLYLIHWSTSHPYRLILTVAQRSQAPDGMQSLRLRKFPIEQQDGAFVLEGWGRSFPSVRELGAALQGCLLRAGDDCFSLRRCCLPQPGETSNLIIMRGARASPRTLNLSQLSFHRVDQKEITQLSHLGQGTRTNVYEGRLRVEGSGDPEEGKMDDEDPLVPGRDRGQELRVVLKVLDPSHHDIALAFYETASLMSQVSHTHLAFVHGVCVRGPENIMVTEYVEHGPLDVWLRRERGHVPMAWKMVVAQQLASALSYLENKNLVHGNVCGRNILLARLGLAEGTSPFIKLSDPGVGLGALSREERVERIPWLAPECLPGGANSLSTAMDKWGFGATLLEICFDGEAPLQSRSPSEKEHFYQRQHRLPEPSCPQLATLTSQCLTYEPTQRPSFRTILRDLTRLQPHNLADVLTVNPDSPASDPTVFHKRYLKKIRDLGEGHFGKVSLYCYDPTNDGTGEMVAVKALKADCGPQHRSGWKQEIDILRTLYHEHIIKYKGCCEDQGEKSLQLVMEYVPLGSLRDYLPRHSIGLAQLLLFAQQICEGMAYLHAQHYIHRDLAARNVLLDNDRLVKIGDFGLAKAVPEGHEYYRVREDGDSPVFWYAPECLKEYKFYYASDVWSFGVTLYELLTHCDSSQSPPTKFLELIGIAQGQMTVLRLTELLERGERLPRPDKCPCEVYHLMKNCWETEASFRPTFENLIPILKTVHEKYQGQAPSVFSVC
Assay type: biochemical
Procedure: as §1, §2, §3, §4, §5, §6, §7

| Compound | IC50 [nM] |
| --- | --- |
| COC(=O)[C@H]1C[C@H](NC(=O)c2nn(C)c3c2CN(c2ncnc4[nH]ccc24)CC3)C1 [Compound 121] | > 2000 |
| O=C(NCCC(F)(F)F)c1nsc2c1CN(c1ncnc3[nH]ccc13)CC2 [Compound 141] | 100 to 500 |
| C=CCn1nc(C(=O)NCCC(F)(F)F)c2c1CCN(c1ncnc3[nH]ccc13)C2 [Compound 113] | 500 to 2000 |

The next lines start with the values.

| IC50 [nM] | Compound |
| --- | --- |
| > 2000 | O=C(NC[C@@H]1CC[C@H]1O)c1noc2c1CN(c1ncnc3[nH]ccc13)CC2 (relative stereo) [Compound 150-1] |
| > 2000 | CS(=O)(=O)N1CC(CNC(=O)c2noc3c2CN(c2ncnc4[nH]ccc24)CC3)C1 [Compound 168] |
| > 2000 | O=C(NCCS(=O)(=O)N1CCCCC1)c1noc2c1CN(c1ncnc3[nH]ccc13)CC2 [Compound 136] |
| > 2000 | O=C(NCCCC(F)(F)F)c1noc2c1CN(c1ncnc3[nH]ccc13)CC2 [Compound 154] |

What follows are molecules tested against T4, JAK2 (Homo sapiens, UniProt O60674) (assay: Inhibition of JAK2 kinase, LANCE Ultra TR-FRET assay). Conditions: 2x ATP 24 μM, 15 min pre-incubation, 90 min reaction, 23° C.
T4 construct: purchased Invitrogen PV4210
T4 sequence (O60674 whole entry): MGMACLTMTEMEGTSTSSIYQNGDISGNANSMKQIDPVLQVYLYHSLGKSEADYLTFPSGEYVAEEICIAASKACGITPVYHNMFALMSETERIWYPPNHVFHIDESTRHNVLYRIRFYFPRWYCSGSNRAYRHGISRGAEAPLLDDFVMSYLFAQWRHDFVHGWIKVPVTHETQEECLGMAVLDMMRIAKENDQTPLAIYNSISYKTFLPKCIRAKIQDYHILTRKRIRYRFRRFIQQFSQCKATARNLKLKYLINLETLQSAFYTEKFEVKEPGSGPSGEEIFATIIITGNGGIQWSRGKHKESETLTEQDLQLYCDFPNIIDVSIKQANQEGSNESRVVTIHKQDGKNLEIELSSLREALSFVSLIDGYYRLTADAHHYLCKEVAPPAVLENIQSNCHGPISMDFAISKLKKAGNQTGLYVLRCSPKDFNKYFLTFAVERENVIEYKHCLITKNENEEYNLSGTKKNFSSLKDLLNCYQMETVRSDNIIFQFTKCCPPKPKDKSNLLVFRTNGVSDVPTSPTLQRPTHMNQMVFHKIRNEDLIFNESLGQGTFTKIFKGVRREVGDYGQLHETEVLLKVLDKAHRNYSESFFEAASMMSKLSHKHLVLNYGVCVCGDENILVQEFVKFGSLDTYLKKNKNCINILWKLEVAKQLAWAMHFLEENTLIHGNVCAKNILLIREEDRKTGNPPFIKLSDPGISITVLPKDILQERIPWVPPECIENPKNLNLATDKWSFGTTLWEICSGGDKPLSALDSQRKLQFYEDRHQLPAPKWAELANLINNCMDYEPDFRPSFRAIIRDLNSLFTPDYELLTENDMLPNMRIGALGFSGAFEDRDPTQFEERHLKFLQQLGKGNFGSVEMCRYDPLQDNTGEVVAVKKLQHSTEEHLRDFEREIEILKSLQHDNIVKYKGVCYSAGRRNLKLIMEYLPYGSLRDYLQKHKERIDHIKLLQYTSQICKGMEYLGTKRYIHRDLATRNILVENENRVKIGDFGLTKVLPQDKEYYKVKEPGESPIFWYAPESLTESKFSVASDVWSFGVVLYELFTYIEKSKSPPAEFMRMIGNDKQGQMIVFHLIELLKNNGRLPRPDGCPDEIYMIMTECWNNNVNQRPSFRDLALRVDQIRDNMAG
Assay type: biochemical
Procedure: as §1, §2, §3, §4, §5, §6, §7

| Compound | IC50 [nM] |
| --- | --- |
| COC(=O)[C@H]1C[C@H](NC(=O)c2nn(C)c3c2CN(c2ncnc4[nH]ccc24)CC3)C1 [Compound 121] | > 2000 |
| O=C(NCCC(F)(F)F)c1nsc2c1CN(c1ncnc3[nH]ccc13)CC2 [Compound 141] | < 100 |
| C=CCn1nc(C(=O)NCCC(F)(F)F)c2c1CCN(c1ncnc3[nH]ccc13)C2 [Compound 113] | 100 to 500 |

Next, values leading:

| IC50 [nM] | Compound |
| --- | --- |
| 500 to 2000 | O=C(NC[C@@H]1CC[C@H]1O)c1noc2c1CN(c1ncnc3[nH]ccc13)CC2 (relative stereo) [Compound 150-1] |
| 500 to 2000 | CS(=O)(=O)N1CC(CNC(=O)c2noc3c2CN(c2ncnc4[nH]ccc24)CC3)C1 [Compound 168] |
| > 2000 | O=C(NCCS(=O)(=O)N1CCCCC1)c1noc2c1CN(c1ncnc3[nH]ccc13)CC2 [Compound 136] |
| 100 to 500 | O=C(NCCCC(F)(F)F)c1noc2c1CN(c1ncnc3[nH]ccc13)CC2 [Compound 154] |
